ChEMBL document CHEMBL6109137, “Design, Synthesis, Evaluation, and SAR of 5-Phenylisoindoline Derivatives, a Potent Class of Small-Molecule Inhibitors Targeting the Programmed Cell Death-1/Programmed Cell Death-Ligand 1 (PD-1/PD-L1) Interaction” (J Med Chem, 2025)
Activity calls are given as the source filed them. The calls are words filed in the database; no cut-off is given here.

Key:
[1] = biological target: Programmed cell death protein 1/Programmed cell death 1 ligand 1 (Homo sapiens, UniProt Q9NZQ7); experiment: Inhibition of interaction of PD-1/PD-L1 (unknown origin) by HTRF analysis; type: protein-complex assay
Programmed cell death protein 1/Programmed cell death 1 ligand 1, sequence (Q15116 whole entry): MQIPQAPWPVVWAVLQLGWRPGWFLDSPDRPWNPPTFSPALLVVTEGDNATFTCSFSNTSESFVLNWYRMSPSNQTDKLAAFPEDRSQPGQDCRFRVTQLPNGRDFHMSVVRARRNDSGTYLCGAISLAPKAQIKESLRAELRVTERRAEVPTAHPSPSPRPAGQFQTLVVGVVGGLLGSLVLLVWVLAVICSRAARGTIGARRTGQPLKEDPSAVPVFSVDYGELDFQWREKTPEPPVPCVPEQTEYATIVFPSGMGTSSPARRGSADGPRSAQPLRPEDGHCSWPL
Programmed cell death protein 1/Programmed cell death 1 ligand 1, sequence (Q9NZQ7 whole entry): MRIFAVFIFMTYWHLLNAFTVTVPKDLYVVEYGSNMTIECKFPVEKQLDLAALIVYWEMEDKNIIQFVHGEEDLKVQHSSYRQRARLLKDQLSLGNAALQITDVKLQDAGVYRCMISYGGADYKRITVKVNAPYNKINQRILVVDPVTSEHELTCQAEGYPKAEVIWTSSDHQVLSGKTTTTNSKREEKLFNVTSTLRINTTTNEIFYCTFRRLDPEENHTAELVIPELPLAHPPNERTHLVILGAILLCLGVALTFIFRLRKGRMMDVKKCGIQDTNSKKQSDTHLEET

[2] = biological target: T1, Programmed cell death protein 1/Programmed cell death 1 ligand 1 (Homo sapiens) (UniProt Q15116+Q9NZQ7); experiment: Inhibition of PD-1/PD-L1 (unknown origin) interaction in human PBMC cells assessed as increase in IFN-gamma level at 100 nM pretreated with anti-CD3/CD28 and PD-L1 followed by compound addition measured after 72 hrs by ELISA; type: cell-based
[3] = Cytotoxicity against human PBMC cells assessed as inhibition of cell viability by CCK8 assay; type: toxicity, cell-based
[4] = biological target: T1, Programmed cell death protein 1/Programmed cell death 1 ligand 1 (Homo sapiens); experiment: Inhibition of PD-1/PD-L1 (unknown origin) interaction in human PBMC cells assessed as increase in IFN-gamma level at 100 to 1000 nM pretreated with anti-CD3/CD28 and PD-L1 followed by compound addition measured after 72 hrs by ELISA; type: cell-based; conditions: dose 100-1000 nM
[5] = Cytotoxicity against human PBMC cells assessed as inhibition of cell viability at 50 to 5000 nM by CCK8 assay; type: toxicity, cell-based; conditions: 5 µM, dose 50-5000 nM

Cc1c(-c2ccccc2)cccc1-c1ccc2c(c1)CN(C(=O)[C@@H]1CCCCN1)C2
IC50 [1]: 19.3 nM

Cc1c(-c2ccccc2)cccc1-c1ccc2c(c1)CN(C(=O)[C@H]1NCCC1O)C2 (stereo not given in full)
IC50 [1]: 24.2 nM

Cc1c(-c2ccccc2)cccc1-c1ccc2c(c1)C(=O)NC2=O
IC50 [1]: > 10000 nM

Cc1c(-c2ccccc2)cccc1-c1ccc2c(c1)CN(C(=O)[C@H](C)N)C2
IC50 [1]: 30.4 nM

C[C@H](N)C(=O)N1Cc2ccc(-c3cccc(-c4ccc5c(c4)OCCO5)c3C#N)cc2C1
IC50 [1]: 24.5 nM

Clc1c(-c2ccc3c(c2)CNC3)cccc1-c1ccc2nonc2c1
IC50 [1]: 880 nM

Cc1c(-c2ccccc2)cccc1-c1ccc2c(c1)CN(C(=O)[C@@H]1CCCN1)C2
IC50 [1]: 7.1 nM

N#Cc1c(-c2ccccc2)cccc1-c1ccc2c(c1)CNC2
IC50 [1]: 47.6 nM

N#Cc1c(-c2ccccc2)cccc1-c1ccc2c(c1)CN(C(=O)[C@@H]1CCCN1)C2
IC50 [1]: 85.7 nM

Cc1c(-c2ccc3c(c2)CNC3)cccc1-c1ccc2c(c1)OCCO2
IC50 [1]: 35.8 nM

COc1c(-c2ccccc2)cccc1-c1ccc2c(c1)CNC2
IC50 [1]: 115 nM

N#Cc1c(-c2ccccc2)cccc1-c1ccc2c(c1)C(=O)NC2=O
IC50 [1]: > 10000 nM

N#Cc1c(-c2ccccc2)cccc1-c1ccc2c(c1)CN(C(=O)[C@@H]1CCCCN1)C2
IC50 [1]: 64.2 nM

Cc1c(-c2ccccc2)cccc1-c1ccc2c(c1)CN(C(=O)CN)C2
IC50 [1]: 293 nM

O=C([C@@H]1CCCCN1)N1Cc2ccc(-c3cccc(-c4ccc5c(c4)OCCO5)c3Cl)cc2C1
IC50 [1]: 26.2 nM

Cc1c(-c2ccccc2)cccc1-c1ccc2c(c1)CN(C(=O)[C@@H](N)CC(=O)O)C2
IC50 [1]: 142 nM

Nc1c(-c2ccccc2)cccc1-c1ccc2c(c1)CNC2
IC50 [1]: 194 nM

c1ccc(-c2cccc(-c3ccc4c(c3)CNC4)c2)cc1
IC50 [1]: > 10000 nM

Fc1c(-c2ccccc2)cccc1-c1ccc2c(c1)CNC2
IC50 [1]: 95.6 nM

N#Cc1c(-c2ccccc2)cccc1-c1ccc2c(c1)CNC2=O
IC50 [1]: 145 nM

N#Cc1c(-c2ccc3c(c2)CNC3)cccc1-c1ccc2c(c1)OCCO2
IC50 [1]: 18.5 nM

NCC(=O)N1Cc2ccc(-c3cccc(-c4ccccc4)c3Cl)cc2C1
IC50 [1]: 90.3 nM

C[C@H](N)C(=O)N1Cc2ccc(-c3cccc(-c4ccccc4)c3Cl)cc2C1
IC50 [1]: 12.9 nM

Cc1c(-c2ccccc2)cccc1-c1ccc2c(c1)CN(C(=O)[C@@H]1C[C@H](O)CN1)C2
IC50 [1]: 84.5 nM

Cc1c(-c2ccccc2)cccc1-c1ccc2c(c1)CN(C(=O)[C@@H](N)CCCCN)C2
IC50 [1]: 539 nM

Oc1c(-c2ccccc2)cccc1-c1ccc2c(c1)CNC2
IC50 [1]: > 10000 nM

Cc1c(-c2ccccc2)cccc1-c1ccc2c(c1)CN(C(=O)[C@@H](N)CO)C2
IC50 [1]: 94.8 nM

C[C@H](N)C(=O)N1Cc2ccc(-c3cccc(-c4ccccc4)c3C#N)cc2C1
IC50 [1]: 50 nM

Clc1c(-c2ccccc2)cccc1-c1ccc2c(c1)CNC2
IC50 [1]: 9.4 nM
inhibition [2]: Active
IC50 [3]: > 5000 nM

O=C([C@@H]1CCCN1)N1Cc2ccc(-c3cccc(-c4ccccc4)c3Cl)cc2C1
IC50 [1]: 17.9 nM

O=C([C@@H]1CCCN1)N1Cc2ccc(-c3cccc(-c4ccc5c(c4)OCCO5)c3Cl)cc2C1
IC50 [1]: 15.6 nM
IC50 [3]: > 5000 nM

O=C([C@@H]1CCCCN1)N1Cc2ccc(-c3cccc(-c4ccccc4)c3Cl)cc2C1
IC50 [1]: 11.4 nM

Cl.Clc1c(-c2ccc3c(c2)CNC3)cccc1-c1ccc2c(c1)OCCO2
IC50 [1]: 5.9 nM
inhibition [4]: inactive
Activity [5]: Toxic

N#Cc1c(-c2ccccc2)cccc1-c1ccc2c(c1)C(=O)NC2
IC50 [1]: 1520 nM

COC(=O)C[C@H](N)C(=O)N1Cc2ccc(-c3cccc(-c4ccccc4)c3C)cc2C1
IC50 [1]: 416 nM
